Data reported in ChEMBL document CHEMBL1201862, “PubChem BioAssay data set” (2004).
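Protocol summary: plate cells (96-well), add compound at 5 concentrations, incubate 48 h, interpolate endpoints linearly. GI50 = concentration required for 50% inhibition of growth.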 Active and inactive are the calls of the source. No stated cut-off is given here; in the data, active = GI50 up to about 1.1 µM and inactive = higher.

What was measured:
Test in all cases: NCI-60 cell line screen, 48 h
HOP-18 = system: HOP-18
SNB-78 = system: SNB-78
KM-20L2 = system: KM-20L2
LXFL 529 = system: LXFL 529
XF498 = system: XF498
DMS-114 = system: DMS-114
RXF 631 = system: RXF 631
DMS-273 = system: DMS-273
DLD-1 = system: DLD-1

SMILES: CC[C@@H]1C[C@H]2CC3c4[nH]c5ccc(O)cc5c4CCN(C2)C31
- GI50 (HOP-18): > 100 µM (inactive)
- GI50 (SNB-78): > 100 µM (inactive)
- GI50 (KM-20L2): > 100 µM (inactive)
- GI50 (LXFL 529): > 100 µM (inactive)
- GI50 (XF498): > 100 µM (inactive)
- GI50 (DMS-114): > 100 µM (inactive)
- GI50 (RXF 631): > 100 µM (inactive)
- GI50 (DMS-273): > 100 µM (inactive)

SMILES: CC1=Cc2cccc(C)c2C(=O)C1=O [O-HIBISCANONE]
- GI50 (HOP-18): 1.42 µM (inactive)
- GI50 (SNB-78): 26 µM (inactive)
- GI50 (KM-20L2): 18.9 µM (inactive)
- GI50 (LXFL 529): 2.11 µM (inactive)
- GI50 (XF498): 5.2 µM (inactive)
- GI50 (DMS-273): 19.9 µM (inactive)
- GI50 (DLD-1): 2.13 µM (inactive)

SMILES: CCOc1ccccc1/N=C(/NC(=O)CC)SC
- GI50 (HOP-18): > 10 µM (inactive)
- GI50 (SNB-78): > 10 µM (inactive)
- GI50 (KM-20L2): > 10 µM (inactive)
- GI50 (LXFL 529): > 10 µM (inactive)
- GI50 (DMS-114): > 10 µM (inactive)
- GI50 (RXF 631): > 10 µM (inactive)
- GI50 (DMS-273): > 10 µM (inactive)
- GI50 (DLD-1): 88.3 µM (inactive)

SMILES: O=c1/c(=C/c2ccccc2F)sc2nc3ccccc3n12
- GI50 (SNB-78): > 100 µM (inactive)
- GI50 (KM-20L2): > 100 µM (inactive)
- GI50 (LXFL 529): 88.3 µM (inactive)
- GI50 (XF498): > 100 µM (inactive)
- GI50 (DMS-114): 67.3 µM (inactive)
- GI50 (RXF 631): > 100 µM (inactive)
- GI50 (DMS-273): > 100 µM (inactive)
- GI50 (DLD-1): > 100 µM (inactive)

SMILES: O=C(CC1(O)C(=O)Nc2ccccc21)c1ccc(Cl)c(Cl)c1 (stereo not given)
- GI50 (SNB-78): 97.3 µM (inactive)
- GI50 (KM-20L2): > 100 µM (inactive)
- GI50 (LXFL 529): > 100 µM (inactive)
- GI50 (DMS-114): > 100 µM (inactive)
- GI50 (DMS-273): > 100 µM (inactive)
- GI50 (DLD-1): > 100 µM (inactive)

SMILES: CCn1c2c(c3ccccc31)[C@@H](c1ccc(Cl)cc1)CC1C(=O)N(c3ccccc3)C(=O)C21 (stereo not given in full)
- GI50 (HOP-18): > 100 µM (inactive)
- GI50 (SNB-78): 26.4 µM (inactive)
- GI50 (KM-20L2): > 100 µM (inactive)
- GI50 (LXFL 529): > 100 µM (inactive)
- GI50 (XF498): 64.6 µM (inactive)
- GI50 (DMS-114): 46.8 µM (inactive)
- GI50 (DMS-273): > 100 µM (inactive)
- GI50 (DLD-1): > 100 µM (inactive)

SMILES: CC1=NOC(=O)/C1=C/c1ccccc1O
- GI50 (HOP-18): > 100 µM (inactive)
- GI50 (SNB-78): > 100 µM (inactive)
- GI50 (KM-20L2): > 100 µM (inactive)
- GI50 (LXFL 529): > 100 µM (inactive)
- GI50 (XF498): > 100 µM (inactive)
- GI50 (DMS-114): > 100 µM (inactive)
- GI50 (RXF 631): > 100 µM (inactive)
- GI50 (DMS-273): > 100 µM (inactive)
- GI50 (DLD-1): > 100 µM (inactive)

SMILES: C=CCNC(=S)N1CC(C)C(=O)Nc2cc(Cl)ccc21 (stereo not given)
- GI50 (HOP-18): 39.4 µM (inactive)
- GI50 (SNB-78): > 100 µM (inactive)
- GI50 (KM-20L2): > 100 µM (inactive)
- GI50 (LXFL 529): > 100 µM (inactive)
- GI50 (DMS-114): > 100 µM (inactive)
- GI50 (DMS-273): > 100 µM (inactive)
- GI50 (DLD-1): > 100 µM (inactive)

SMILES: C/N=C1\CC2c3cc(OC)c(OC)cc3CCN2C2=C1C(=O)CC(C)(C)C2 (stereo not given)
- GI50 (SNB-78): > 100 µM (inactive)
- GI50 (KM-20L2): > 100 µM (inactive)
- GI50 (LXFL 529): > 100 µM (inactive)
- GI50 (DMS-114): > 100 µM (inactive)
- GI50 (DMS-273): > 100 µM (inactive)
- GI50 (DLD-1): > 100 µM (inactive)

SMILES: NN/C(Cc1ccccc1)=N\NO
- GI50 (HOP-18): > 100 µM (inactive)
- GI50 (KM-20L2): 32.5 µM (inactive)
- GI50 (LXFL 529): 55.1 µM (inactive)
- GI50 (DMS-114): 25.5 µM (inactive)
- GI50 (RXF 631): 32.2 µM (inactive)
- GI50 (DMS-273): > 100 µM (inactive)
- GI50 (DLD-1): > 100 µM (inactive)

SMILES: C[n+]1c(Cl)cn2c3nc4ccccc4nc3c([O-])c(C#N)c21
- GI50 (HOP-18): > 100 µM (inactive)
- GI50 (SNB-78): > 100 µM (inactive)
- GI50 (LXFL 529): > 100 µM (inactive)
- GI50 (XF498): > 100 µM (inactive)
- GI50 (DMS-114): > 100 µM (inactive)
- GI50 (DMS-273): > 100 µM (inactive)
- GI50 (DLD-1): < 0.01 µM (active)

SMILES: Cc1nc(-c2nc(C)c(C(=O)NN(C)C)s2)sc1C(=O)NN(C)C
- GI50 (HOP-18): > 100 µM (inactive)
- GI50 (SNB-78): > 100 µM (inactive)
- GI50 (KM-20L2): > 100 µM (inactive)
- GI50 (LXFL 529): > 100 µM (inactive)
- GI50 (XF498): > 100 µM (inactive)
- GI50 (DMS-273): 16.2 µM (inactive)
- GI50 (DLD-1): 33.9 µM (inactive)

SMILES: N#Cc1ccccc1NC(=O)C(=O)C1NC(=S)NC1=O (stereo not given)
- GI50 (HOP-18): 46.6 µM (inactive)
- GI50 (KM-20L2): > 100 µM (inactive)
- GI50 (LXFL 529): > 100 µM (inactive)
- GI50 (XF498): > 100 µM (inactive)
- GI50 (DMS-114): > 100 µM (inactive)
- GI50 (DLD-1): > 100 µM (inactive)

SMILES: C=C1C(=O)O[C@@H]2C[C@@H](C)[C@@H]3C=CC(=O)[C@@]3(C)[C@@H](O)[C@H]12 [HELENALIN]
- GI50 (HOP-18): 2.02 µM (inactive)
- GI50 (KM-20L2): 1.73 µM (inactive)
- GI50 (LXFL 529): 0.493 µM (active)
- GI50 (DMS-114): 1.45 µM (inactive)
- GI50 (DMS-273): 1.53 µM (inactive)
- GI50 (DLD-1): 0.557 µM (active)

SMILES: COc1cc(/C=C2\[C@H]3c4c(c(OC)c(C)c(OC)c4OC)C[C@@H](C(=O)N2Cc2ccccc2)N3C(=O)OCC(C)C)c(OC)c(C)c1OC
- GI50 (HOP-18): > 100 µM (inactive)
- GI50 (KM-20L2): > 69.8 µM (inactive)
- GI50 (LXFL 529): > 100 µM (inactive)
- GI50 (XF498): 40.6 µM (inactive)
- GI50 (DMS-273): 47.1 µM (inactive)
- GI50 (DLD-1): > 100 µM (inactive)

SMILES: CC(=O)Nc1ccc(C(=O)NN2C(=O)C(Cl)C2c2ccc(O)cc2)cc1 (stereo not given)
- GI50 (SNB-78): > 100 µM (inactive)
- GI50 (KM-20L2): > 100 µM (inactive)
- GI50 (LXFL 529): > 100 µM (inactive)
- GI50 (XF498): 52.8 µM (inactive)
- GI50 (DMS-273): > 100 µM (inactive)
- GI50 (DLD-1): > 100 µM (inactive)

SMILES: CC(C)=C1CCC(CN2CCOCC2)C1=O (stereo not given)
- GI50 (HOP-18): 9.35 µM (inactive)
- GI50 (SNB-78): 9.38 µM (inactive)
- GI50 (KM-20L2): 16.4 µM (inactive)
- GI50 (LXFL 529): 2.38 µM (inactive)
- GI50 (XF498): 12.7 µM (inactive)
- GI50 (DMS-114): 7.89 µM (inactive)
- GI50 (RXF 631): 9.23 µM (inactive)
- GI50 (DLD-1): 4.38 µM (inactive)

SMILES: O=C(CC1(O)C(=O)Nc2c(Cl)cc(Cl)cc21)c1ccccc1 (stereo not given)
- GI50 (SNB-78): 81.3 µM (inactive)
- GI50 (KM-20L2): > 100 µM (inactive)
- GI50 (LXFL 529): 50.1 µM (inactive)
- GI50 (XF498): 47.1 µM (inactive)
- GI50 (DMS-114): 39.7 µM (inactive)
- GI50 (RXF 631): > 100 µM (inactive)
- GI50 (DMS-273): 45.7 µM (inactive)

SMILES: C=CCc1cc(OC)c2c(c1)C(OC)CC(c1ccc(OC)c(OC)c1)O2 (stereo not given)
- GI50 (SNB-78): > 100 µM (inactive)
- GI50 (KM-20L2): > 100 µM (inactive)
- GI50 (LXFL 529): > 100 µM (inactive)
- GI50 (XF498): > 100 µM (inactive)
- GI50 (DMS-114): 67.5 µM (inactive)
- GI50 (RXF 631): > 100 µM (inactive)
- GI50 (DMS-273): > 100 µM (inactive)
- GI50 (DLD-1): > 100 µM (inactive)

SMILES: CC1=C(c2cc(C(=O)Nc3cc(C)ccc3C)nc(N)n2)Sc2ccccc2N1
- GI50 (HOP-18): > 100 µM (inactive)
- GI50 (SNB-78): > 100 µM (inactive)
- GI50 (KM-20L2): > 100 µM (inactive)
- GI50 (LXFL 529): > 100 µM (inactive)
- GI50 (DMS-114): > 100 µM (inactive)
- GI50 (RXF 631): > 100 µM (inactive)
- GI50 (DMS-273): > 100 µM (inactive)
- GI50 (DLD-1): > 100 µM (inactive)

SMILES: COc1c(C)cc2c(C(C)C)c(O)c(O)c(C=O)c2c1O
- GI50 (HOP-18): 14.9 µM (inactive)
- GI50 (SNB-78): 27.9 µM (inactive)
- GI50 (KM-20L2): 19.7 µM (inactive)
- GI50 (LXFL 529): 24.8 µM (inactive)
- GI50 (XF498): 39 µM (inactive)
- GI50 (DMS-114): 17.8 µM (inactive)
- GI50 (DMS-273): 23 µM (inactive)
- GI50 (DLD-1): 32.1 µM (inactive)

SMILES: CC1(C)CC(=O)c2c(oc3cc(O)c(O)cc23)C1
- GI50 (HOP-18): 40.1 µM (inactive)
- GI50 (SNB-78): 46.9 µM (inactive)
- GI50 (KM-20L2): 33.7 µM (inactive)
- GI50 (LXFL 529): 24.7 µM (inactive)
- GI50 (DMS-114): 13.2 µM (inactive)
- GI50 (RXF 631): 26.3 µM (inactive)
- GI50 (DMS-273): 28.6 µM (inactive)
- GI50 (DLD-1): 22.9 µM (inactive)

SMILES: CC(=O)NC(CCCCN)C(=O)NCc1ccccc1 (stereo not given)
- GI50 (KM-20L2): > 100 µM (inactive)
- GI50 (LXFL 529): > 100 µM (inactive)
- GI50 (XF498): > 100 µM (inactive)
- GI50 (DMS-114): > 100 µM (inactive)
- GI50 (DMS-273): > 100 µM (inactive)
- GI50 (DLD-1): > 100 µM (inactive)
